Where a name gives a salt, the structure may show the parent alone.
Tested on: LTC4-induced contraction of guinea pig ileum
Experiment: Test for Inhibition of LTC4-Induced Guinea Pig Ilial Contractions
Conditions: Cavia porcellus, LTC4 6 nanomolar, isolated guinea pig ilial strips, four replicate tissues, read-out: Percent Inhibition of Contraction at the given Concentration of Test Compound; for inhibition at 1 µM: 1 μMolar; for inhibition at 5 µM: 5 μMolar; for inhibition at 10 µM: 10 μMolar; for inhibition at 50 µM: 50 μMolar
Protocol: Test for Inhibition of LTC4 -Induced Guinea Pig Ilial Contractions The evaluation of potential anti-allergic compounds for antagonism of the in vitro effects of LTC4 is conducted according to the following procedure. Guinea pig ilial strips are obtained from recently killed animals and hung in isolated tissue baths comprising a balanced solution of salts such as Krebs' solution. After allowing for one hour equilibration of the tissue in the bath, the gram tension (G.T.) on one tissue is arbitrarily set at one. LTC4 (6 nanomolar concentration) is then added to the tissue bath. This induces a long, sustained contraction of the tissue that is measured on the strip chart recorder (the G.T. increases to about 2). After the LTC4 -induced contraction has plateaued and remains stable, increasing amounts of the test compound are added to the bath. If the compound is effective, a decrease in the G.T. (ΔG.T.) from the LTC4 -induced value is seen (e.g., from 2 to 1.5). The percent inhibition at each concentration is calculated according to the formula: [formula] Four replicate tissues are run.

Row | SMILES | inhibition at 1 µM [%] | inhibition at 5 µM [%] | inhibition at 10 µM [%] | inhibition at 50 µM [%]
1 | CCCNCC(O)COc1ccc2c(c1)O/C(=C\c1ccccc1)C2=O (stereo not drawn) [Example 1, 6-[2-Hydroxy-3-(propylamino)propoxy]aurone Hydrochloride] | 16 | 44 | 66 | 135
2 | CC(C)NCC(O)COc1ccc2c(c1)O/C(=C\c1ccccc1)C2=O (stereo not drawn) [Example 2, 6-[2-Hydroxy-3-(isopropylamino)propoxy]aurone Hydrochloride] | 23 | 48 | 62 | 154
3 | O=C1/C(=C/c2ccccc2)Oc2cc(OCC(O)CNC3CC3)ccc21 (stereo not drawn) [Example 3, 6-[3-(Cyclopropylamino)-2-hydroxypropoxy]aurone Hydrochloride] | 25 | 48 | 65 | 144
